Measured values as given in the NIST ThermoML archive (doi:10.1021/je900672g).

Experiment: isobaric coefficient of expansion
Conditions: Liquid, DSC

C[N+](=O)[O-] [nitromethane]
isobaric coefficient of expansion
Conditions	278.15 K	288.15 K	298.15 K	308.15 K	318.15 K	328.15 K	338.15 K	348.15 K
5000 kPa	0.00116 1/K	0.00118 1/K	0.00121 1/K	0.00123 1/K	0.00126 1/K	0.00129 1/K	0.00134 1/K	0.00138 1/K
10000 kPa	0.00114 1/K	0.00116 1/K	0.00118 1/K	0.0012 1/K	0.00123 1/K	0.00126 1/K	0.00128 1/K	0.00132 1/K
15000 kPa	0.00113 1/K	0.00114 1/K	0.00116 1/K	0.00118 1/K	0.00119 1/K	0.00121 1/K	0.00124 1/K	0.00127 1/K
20000 kPa	0.0011 1/K	0.00112 1/K	0.00113 1/K	0.00115 1/K	0.00116 1/K	0.00117 1/K	0.0012 1/K	0.00122 1/K
25000 kPa	0.00108 1/K	0.0011 1/K	0.00111 1/K	0.00112 1/K	0.00113 1/K	0.00114 1/K	0.00117 1/K	0.00119 1/K
30000 kPa	0.00106 1/K	0.00108 1/K	0.00109 1/K	0.0011 1/K	0.00111 1/K	0.00112 1/K	0.00113 1/K	0.00115 1/K
35000 kPa	0.00105 1/K	0.00106 1/K	0.00107 1/K	0.00108 1/K	0.00109 1/K	0.0011 1/K	0.00111 1/K	0.00112 1/K
40000 kPa	0.00103 1/K	0.00104 1/K	0.00105 1/K	0.00105 1/K	0.00106 1/K	0.00107 1/K	0.00107 1/K	0.00108 1/K
45000 kPa	0.00102 1/K	0.00102 1/K	0.00103 1/K	0.00103 1/K	0.00104 1/K	0.00105 1/K	0.00105 1/K	0.00106 1/K
50000 kPa	0.001 1/K	0.00101 1/K	0.00101 1/K	0.00102 1/K	0.00103 1/K	0.00103 1/K	0.00103 1/K	0.00103 1/K
55000 kPa	0.000986 1/K	0.000992 1/K	0.000998 1/K	0.001 1/K	0.00101 1/K	0.00101 1/K	0.00102 1/K	0.00102 1/K

CCC#N [propanenitrile]
isobaric coefficient of expansion
Conditions	278.15 K	288.15 K	298.15 K	308.15 K	318.15 K	328.15 K	338.15 K	348.15 K
5000 kPa	0.00122 1/K	0.00125 1/K	0.00128 1/K	0.0013 1/K	0.00135 1/K	0.00139 1/K	0.00144 1/K	0.0015 1/K
10000 kPa	0.0012 1/K	0.00121 1/K	0.00123 1/K	0.00126 1/K	0.00129 1/K	0.00133 1/K	0.00136 1/K	0.00141 1/K
15000 kPa	0.00117 1/K	0.00118 1/K	0.0012 1/K	0.00121 1/K	0.00125 1/K	0.00127 1/K	0.0013 1/K	0.00133 1/K
20000 kPa	0.00114 1/K	0.00115 1/K	0.00117 1/K	0.00118 1/K	0.0012 1/K	0.00122 1/K	0.00125 1/K	0.00127 1/K
25000 kPa	0.00111 1/K	0.00112 1/K	0.00113 1/K	0.00114 1/K	0.00116 1/K	0.00118 1/K	0.0012 1/K	0.00122 1/K
30000 kPa	0.00109 1/K	0.0011 1/K	0.00111 1/K	0.00111 1/K	0.00113 1/K	0.00114 1/K	0.00115 1/K	0.00117 1/K
35000 kPa	0.00107 1/K	0.00107 1/K	0.00108 1/K	0.00109 1/K	0.0011 1/K	0.00111 1/K	0.00112 1/K	0.00113 1/K
40000 kPa	0.00104 1/K	0.00105 1/K	0.00105 1/K	0.00106 1/K	0.00106 1/K	0.00107 1/K	0.00107 1/K	0.00108 1/K
45000 kPa	0.00102 1/K	0.00103 1/K	0.00103 1/K	0.00104 1/K	0.00104 1/K	0.00105 1/K	0.00105 1/K	0.00105 1/K
50000 kPa	0.001 1/K	0.00101 1/K	0.00101 1/K	0.00101 1/K	0.00102 1/K	0.00102 1/K	0.00102 1/K	0.00103 1/K
55000 kPa	0.000991 1/K	0.000992 1/K	0.000993 1/K	0.000994 1/K	0.001 1/K	0.001 1/K	0.00101 1/K	0.00101 1/K

CC[N+](=O)[O-] [nitroethane]
isobaric coefficient of expansion
Conditions	278.15 K	288.15 K	298.15 K	308.15 K	318.15 K	328.15 K	338.15 K	348.15 K
5000 kPa	0.00113 1/K	0.00114 1/K	0.00115 1/K	0.00117 1/K	0.00119 1/K	0.0012 1/K	0.00122 1/K	0.00126 1/K
10000 kPa	0.0011 1/K	0.00111 1/K	0.00112 1/K	0.00114 1/K	0.00116 1/K	0.00116 1/K	0.00119 1/K	0.00121 1/K
15000 kPa	0.00109 1/K	0.00109 1/K	0.0011 1/K	0.00111 1/K	0.00113 1/K	0.00113 1/K	0.00114 1/K	0.00117 1/K
20000 kPa	0.00106 1/K	0.00107 1/K	0.00107 1/K	0.00109 1/K	0.0011 1/K	0.0011 1/K	0.00111 1/K	0.00112 1/K
25000 kPa	0.00104 1/K	0.00105 1/K	0.00105 1/K	0.00106 1/K	0.00107 1/K	0.00107 1/K	0.00108 1/K	0.0011 1/K
30000 kPa	0.00102 1/K	0.00103 1/K	0.00103 1/K	0.00104 1/K	0.00105 1/K	0.00104 1/K	0.00106 1/K	0.00107 1/K
35000 kPa	0.00101 1/K	0.00101 1/K	0.00101 1/K	0.00102 1/K	0.00102 1/K	0.00103 1/K	0.00103 1/K	0.00104 1/K
40000 kPa	0.000984 1/K	0.000987 1/K	0.000993 1/K	0.000994 1/K	0.000999 1/K	0.001 1/K	0.00101 1/K	0.00101 1/K
45000 kPa	0.000973 1/K	0.000972 1/K	0.000973 1/K	0.000977 1/K	0.000981 1/K	0.000984 1/K	0.000982 1/K	0.000989 1/K
50000 kPa	0.000958 1/K	0.00096 1/K	0.00096 1/K	0.000961 1/K	0.000964 1/K	0.000964 1/K	0.000964 1/K	0.000966 1/K
55000 kPa	0.00094 1/K	0.000944 1/K	0.000941 1/K	0.000942 1/K	0.000945 1/K	0.000944 1/K	0.000945 1/K	0.000947 1/K
